Laboratory results reported in US20230075007A1 (IMPACT NATURALS, INC., priority 2021, published 2023).

Legend:
[1] = Dispersion in simulated gastric and intestinal fluids; format: physicochemical
Experimental: Dispersion of the formulations in simulated gastric and intestinal fluids is evaluated over a 12 hour period.

[2] = cited from earlier work
[3] = biological target: CB2 (Homo sapiens, UniProt P34972); conditions: WHO assessment; cited from earlier work
Sequence of CB2 (P34972 whole entry, species assumed): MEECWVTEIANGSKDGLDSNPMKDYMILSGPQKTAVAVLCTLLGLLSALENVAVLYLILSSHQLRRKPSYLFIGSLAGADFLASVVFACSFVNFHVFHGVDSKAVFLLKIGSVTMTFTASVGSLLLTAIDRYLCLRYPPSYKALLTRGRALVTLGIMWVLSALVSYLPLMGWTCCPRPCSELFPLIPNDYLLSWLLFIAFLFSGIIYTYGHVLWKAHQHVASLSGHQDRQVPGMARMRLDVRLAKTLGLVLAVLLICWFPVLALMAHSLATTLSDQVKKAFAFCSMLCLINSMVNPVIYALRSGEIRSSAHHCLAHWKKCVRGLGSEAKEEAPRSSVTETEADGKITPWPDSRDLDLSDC

With `C=C(C)[C@@H]1CCC(C)=C[C@H]1c1c(O)cc(CCCCC)cc1O` [Cannabidiol] the dispersion ([1]; FaSSGF, pH 1.2, 12 hour period) was “no dispersion”, the “dispersion pattern in the biorelevant media” value ([1]; FaSSIF, FeSSIF and FaSSGF overall) was “poor dispersion” and the dispersion ([1]; FaSSIF, pH 6.5, 12 hour period) was “about 20%”. The dispersion ([1]; FeSSIF, pH 5.5, 12 hour period) was “about 20%”, the aqueous solubility [2] was “approximately 0.013 milligrams per milliliter” and the “affinity to CB2” value [3] was “low affinity”.
